Reference: BindingDB's records for doi:10.1021/acs.jnatprod.8b00507 (Chinese Academy of Sciences, 2019)

Experiment: Inhibition of P-gp in doxorubicin-resistant human MCF7/ADR cells assessed as reversal of doxorubicin resistance by measuring doxorubicin IC50 incubated for 48 hrs by MTT assay (Rvb = doxorubicin alone = 64.8 +/- 2.1 uM)

| Compound | IC50 |
| --- | --- |
| C=C1[C@H](OC(C)=O)[C@H]2[C@@H](OC(=O)c3ccccc3)[C@@H](C)C[C@]2(OC(C)=O)C(=O)[C@@H](C)/C=C/C(C)(C)C(=O)[C@H](O)[C@H]1OC(C)=O | 13.3 µM |
| C=C1[C@H](OC(C)=O)[C@H]2[C@@H](OC(=O)c3ccccc3)[C@](C)(OC(C)=O)C[C@]2(O)C(=O)[C@@H](C)/C=C/C(C)(C)C(=O)[C@H](OC(C)=O)[C@H]1OC(=O)C(C)C | 12.9 µM |
| C=C1[C@H](OC(C)=O)[C@H]2[C@@H](OC(=O)CC(C)=O)[C@@H](C)C[C@]2(O)C(=O)[C@@H](C)/C=C/C(C)(C)C(=O)[C@H](OC(C)=O)[C@H]1OC(=O)c1ccccc1 | 10.3 µM |
| C=C1[C@H](O)[C@H]2[C@@H](OC(=O)c3ccccc3)[C@](C)(O)C[C@]2(O)[C@H](OC(C)=O)[C@@H](C)/C=C/C(C)(C)C(=O)[C@H](OC(C)=O)[C@H]1OC(=O)c1ccccc1 | 28 µM |
| C=C1[C@H](O)[C@H]2[C@@H](OC(=O)c3ccccc3)[C@](C)(OC(C)=O)C[C@]2(O)[C@H](OC(C)=O)[C@@H](C)/C=C/C(C)(C)C(=O)[C@H](OC(C)=O)[C@H]1OC(C)=O | 20.6 µM |
| C=C1[C@H](OC(C)=O)CC(=O)C(C)(C)/C=C/[C@H](C)C(=O)[C@@]2(OC(C)=O)C[C@H](C)[C@H](OC(=O)c3ccccc3)[C@@H]2[C@H]1OC(C)=O | 13.1 µM |
| C=C1[C@H](OC(C)=O)[C@H]2[C@@H](OC(=O)c3ccccc3)[C@@H](C)C[C@]2(O)C(=O)[C@@H](C)/C=C/C(C)(C)C(=O)[C@H](O)[C@H]1OC(C)=O | 25.3 µM |
| C=C1[C@H](OC(C)=O)CC(=O)C(C)(C)/C=C/[C@H](C)C(=O)[C@@]2(OC(C)=O)C[C@H](C)[C@H](OC(C)=O)[C@@H]2[C@H]1OC(=O)c1ccccc1 | 14.2 µM |
| C=C1[C@H](OC(=O)c2ccccc2)[C@H]2[C@@H](OC(C)=O)[C@@H](C)C[C@]2(OC(C)=O)C(=O)[C@@H](C)/C=C/C(C)(C)C(=O)[C@H](O)[C@H]1OC(C)=O | 21.6 µM |

These reach a lower IC50. Values come first.

| IC50 | Compound |
| --- | --- |
| 8 µM | C=C1[C@H](OC(C)=O)[C@H]2[C@@H](OC(=O)c3ccccc3)[C@@H](C)C[C@]2(OC(C)=O)C(=O)[C@@H](C)/C=C/C(C)(C)C(=O)[C@H](OC(C)=O)[C@H]1OC(=O)c1ccccc1 |
| 5 µM | C=C1[C@H](OC(C)=O)[C@H]2[C@@H](OC(=O)c3ccccc3)[C@](C)(O)C[C@]2(O)C(=O)[C@@H](C)/C=C/C(C)(C)C(=O)[C@H](OC(=O)C(C)C)[C@H]1OC(C)=O |
| 7.8 µM | C=C1[C@H](OC(C)=O)[C@H]2[C@@H](OC(=O)c3ccccc3)[C@](C)(O)C[C@]2(O)C(=O)[C@@H](C)/C=C/C(C)(C)C(=O)[C@H](OC(C)=O)[C@H]1OC(=O)c1ccccc1 |
| 9.9 µM | C=C1[C@H](OC(=O)c2ccccc2)[C@@H](OC(C)=O)[C@@H](OC(C)=O)C(C)(C)/C=C/[C@H](C)C(=O)[C@@]2(OC(C)=O)C[C@H](C)[C@H](OC(=O)c3ccccc3)[C@@H]2[C@H]1OC(C)=O |
| 9.6 µM | C=C1[C@H](OC(C)=O)[C@H]2[C@@H](OC(=O)c3ccccc3)[C@@H](C)C[C@]2(OC(C)=O)C(=O)[C@@H](C)/C=C/C(C)(C)C(=O)[C@H](OC(C)=O)[C@H]1OC(C)=O |
| 9.5 µM | C=C1[C@H](OC(C)=O)[C@H]2[C@@H](OC(=O)c3ccccc3)[C@@H](C)C[C@]2(OC(C)=O)C(=O)[C@@H](C)/C=C/C(C)(C)C(=O)[C@H](O)[C@H]1OC(=O)c1ccccc1 |
| 7.3 µM | C=C1[C@H](OC(=O)c2ccccc2)[C@H]2[C@@H](OC(C)=O)[C@@H](C)C[C@]2(OC(C)=O)C(=O)[C@@H](C)/C=C/C(C)(C)C(=O)[C@H](OC(=O)c2ccccc2)[C@H]1OC(C)=O |
| 5.3 µM | C=C1[C@H](OC(C)=O)[C@H]2[C@@H](OC(=O)c3ccccc3)[C@](C)(OC(C)=O)C[C@]2(O)C(=O)[C@@H](C)/C=C/C(C)(C)C(=O)[C@H](OC(=O)C(C)C)[C@H]1OC(C)=O |
